The values that follow are results of earlier work, collected in patent US20040101549A1, “Treatments” (priority 2002, published 2004).

Regarding polyestradiol phosphate [PEP], the “overall and cardiovascular mortality versus maximum androgen blockade” value (915 patients randomized, over 6 years, Hedlund & Henriksson) is “equivalent”. Besides, the long-term cardiovascular protection result (epidemiological comparison to an age-standardized population, Aro) is “significant long-term cardiovascular protection”. Also, the “reduction of short-term cardiovascular morbidity” value (intramuscular, first line CaP therapy, Mikkola et al) was “over 90%”.
